From publication PMC8286840, “Identifying SARS-CoV-2 antiviral compounds by screening for small molecule inhibitors of Nsp3 papain-like protease” (Biochemical Journal, 2021) come the findings set out here.

Structures can show the parent of a compound that is named as a salt. Where two headings read alike, the source gives them in different places.

Assay [1] deals with T1, SARS-CoV-2 PLpro (nsp3 1564–1878) (Severe acute respiratory syndrome coronavirus 2, UniProt P0DTD1). Description: biochemical. Also noted: FRET-quenched peptide (Pro3) cleavage by PLpro, 10 min pre-incubation, slope over 20 min, normalised to no-compound control. The following applies: low concentration screen, read-out: % of control remaining.
In assay [2] the target is T1, SARS-CoV-2 PLpro (nsp3 1564–1878). Description: biochemical. Also noted: FRET-quenched peptide (Pro3) cleavage by PLpro, 10 min pre-incubation, slope over 20 min, normalised to no-compound control. The note with it: high concentration screen, read-out: % of control remaining.

With `COc1ccc2c(c1)c(CC(=O)O)c(C)n2C(=O)c1ccccc1` [1-benzoyl-5-methoxy-2-methylindole-3-acetic acid], the remaining activity at 1.25 µM in assay [1] (Well no.=118) is 102%. For the same compound, the remaining activity at 3.75 µM in assay [2] (Well no.=118) came out at 104%.
For the compound `O=C(O)c1cn(C2CC2)c2cc(N3C[C@@H]4C[C@H]3CN4)c(F)cc2c1=O` [1-cyclopropyl-7-[(1S,4S)-2,5-diazabicyclo[2.2.1]hept-2-yl]-6-fluoro-4-oxo-1,4-dihydro-3-quinolinecarboxylic acid methanesulfonate hydrate], the remaining activity at 1.25 µM in assay [1] (Well no.=5598) was 91.4%. For the same compound, the remaining activity at 3.75 µM in assay [2] (Well no.=5598) is 86.5%.
With `Nc1ncnc2c1ncn2[C@H]1CC[C@@H](CO)O1` [2',3'-Dideoxyadenosine], in assay [1] (Well no.=7998), the remaining activity at 1.25 µM was found to be 97.5%. Besides, in assay [2] (Well no.=7998), the remaining activity at 3.75 µM turned out to be 94.3%.
Turning to `Cc1cn([C@H]2C=C[C@@H](CO)O2)c(=O)[nH]c1=O` [2',3'-didehydro-3'-deoxythymidine], the remaining activity at 1.25 µM in assay [1] (Well no.=445) amounted to 104%. Further, the remaining activity at 3.75 µM in assay [2] (Well no.=445) worked out at 105%.
Take `Nc1ccn([C@H]2CC[C@@H](CO)O2)c(=O)n1` [2',3'-dideoxycytidine]: the remaining activity at 1.25 µM in assay [1] (Well no.=549) is 98.3%. Moreover, the remaining activity at 3.75 µM in assay [2] (Well no.=549) was determined as 96.6%.
Take `Nc1ncnc2c1ncn2[C@H]1C[C@H](O)[C@@H](CO)O1` [2'-Deoxyadenosine monohydrate]: the remaining activity at 1.25 µM in assay [1] (Well no.=8885) was found to be 95.3%. In addition, in assay [2] (Well no.=8885), the remaining activity at 3.75 µM is 90.7%.
`Nc1ncnc2c1ncn2[C@H]1C[C@H](O)[C@@H](CO)O1` [2'-Deoxyadenosine]: the remaining activity at 1.25 µM in assay [1] (Well no.=6691) was 106%; in assay [1] (Well no.=7722), 95.5%. The remaining activity at 3.75 µM was determined as 105% in assay [2] (Well no.=6691) and 101% in assay [2] (Well no.=7722).
As for `Nc1ccn([C@H]2C[C@H](O)[C@@H](CO)O2)c(=O)n1` [2'-Deoxycytidine (hydrochloride)], the remaining activity at 1.25 µM in assay [1] (Well no.=7806) stood at 105%. The remaining activity at 3.75 µM in assay [2] (Well no.=7806) came to 109%.
On to `Nc1ccn([C@H]2C[C@H](O)[C@@H](CO)O2)c(=O)n1` [2'-Deoxycytidine], for which the remaining activity at 1.25 µM in assay [1] (Well no.=7451) turned out to be 93.9%; in assay [1] (Well no.=7760), 96.4%. The remaining activity at 3.75 µM is 93.7% in assay [2] (Well no.=7451) and 98.4% in assay [2] (Well no.=7760).
`Nc1nc2c(ncn2[C@H]2C[C@H](O)[C@@H](CO)O2)c(=O)[nH]1` [2'-Deoxyguanosine]: the figures for the remaining activity at 1.25 µM in assay [1] (Well no.=6209) and in assay [1] (Well no.=7772) were 102% and 99.2%, respectively. Also, the remaining activity at 3.75 µM in assay [2] (Well no.=6209) worked out at 97.7%; in assay [2] (Well no.=7772), 101%.
Consider `O=c1[nH]cnc2c1ncn2[C@H]1C[C@H](O)[C@@H](CO)O1` [2'-Deoxyinosine], for which the remaining activity at 1.25 µM in assay [1] (Well no.=7497) was determined as 106%; in assay [1] (Well no.=7712) it was 95%. The remaining activity at 3.75 µM in assay [2] (Well no.=7497) was 105%; in assay [2] (Well no.=7712), 96.3%.
For the compound `O=c1ccn([C@H]2C[C@H](O)[C@@H](CO)O2)c(=O)[nH]1` [2'-Deoxyuridine], the remaining activity at 1.25 µM in assay [1] (Well no.=6627) came to 107%; in assay [1] (Well no.=8893), 103%. Moreover, the remaining activity at 3.75 µM in assay [2] (Well no.=6627) was 102%; in assay [2] (Well no.=8893) it was 103%.
For `c1ccc(-c2ccccn2)nc1` [2,2'-Bipyridyl], the remaining activity at 1.25 µM in assay [1] (Well no.=724) was 96.8%. In addition, the remaining activity at 3.75 µM in assay [2] (Well no.=724) amounted to 95.8%.
Regarding `O=C(Nc1ccc(S(=O)(=O)Nc2nccs2)cc1)C(c1ccccc1)c1ccccc1` [2,2-diphenyl-N-{4-[(1,3-thiazol-2-ylamino)sulfonyl]phenyl}acetamide], the remaining activity at 1.25 µM in assay [1] (Well no.=5558) stood at 92.9%. In addition, in assay [2] (Well no.=5558), the remaining activity at 3.75 µM worked out at 96.4%.
In the case of `CC(=O)/C(C)=N/O` [2,3-Butanedione monoxime], the remaining activity at 1.25 µM in assay [1] (Well no.=22) was determined as 103%. Besides, the remaining activity at 3.75 µM in assay [2] (Well no.=22) was 105%.
Regarding `CC(=O)C(C)=O` [2,3-Butanedione], the remaining activity at 1.25 µM in assay [1] (Well no.=687) was 98.3%. Also, in assay [2] (Well no.=687), the remaining activity at 3.75 µM was 97.2%.
Turning to `COC1=C(OC)C(=O)c2ccccc2C1=O` [2,3-Dimethoxy-1,4-naphthoquinone], in assay [1] (Well no.=739), the remaining activity at 1.25 µM was 98%. In assay [2] (Well no.=739), the remaining activity at 3.75 µM came out at 96.9%.
Take `CCCCC[C@H](O)/C=C/[C@@H]1[C@@H](CC(=O)CCC(=O)O)[C@@H](O)C[C@@H]1O` [2,3-Dinor-6-keto-prostaglandin F1a]: the remaining activity at 1.25 µM in assay [1] (Well no.=4527) amounted to 93.5%. In addition, in assay [2] (Well no.=4527), the remaining activity at 3.75 µM came to 97.9%.
Turning to `COc1cc2c[n+](C)c3c4cc5c(cc4ccc3c2cc1OC)OCO5` [2,3-dimethoxy-12-methyl[1,3]benzodioxolo[5,6-c]phenanthridin-12-ium chloride], in assay [1] (Well no.=5862), the remaining activity at 1.25 µM came out at 100%. The remaining activity at 3.75 µM in assay [2] (Well no.=5862) was 98.5%.
Take `O=C(O)c1ccc(O)cc1O` [2,4-Dihydroxybenzoic acid]: the remaining activity at 1.25 µM in assay [1] (Well no.=6781) amounted to 102%. In addition, the remaining activity at 3.75 µM in assay [2] (Well no.=6781) amounted to 101%.
Take `O=[N+]([O-])c1ccc(O[C@@H]2O[C@H](CO)[C@@H](O)[C@H](O)[C@H]2F)c([N+](=O)[O-])c1` [2,4-Dinitrophenyl 2-fluoro-2-deoxy-beta-D-glucopyranoside]: the remaining activity at 1.25 µM in assay [1] (Well no.=637) is 100%. The remaining activity at 3.75 µM in assay [2] (Well no.=637) amounted to 101%.
For the compound `COC(=O)/C=C/c1cc(O)ccc1O` [2,5-Dihydroxycinnamic acid methyl ester], the remaining activity at 1.25 µM in assay [1] (Well no.=495) worked out at 103%. Besides, in assay [2] (Well no.=495), the remaining activity at 3.75 µM was determined as 106%.
Turning to `O=C(O)c1ccc(C(=O)O)o1` [2,5-Furandicarboxylic acid], the remaining activity at 1.25 µM in assay [1] (Well no.=7461) amounted to 98%. Besides, the remaining activity at 3.75 µM in assay [2] (Well no.=7461) turned out to be 91.7%.
`Nc1cc(=O)[nH]c(N)n1` [2,6-Diamino-4-pyrimidinone]: the remaining activity at 1.25 µM in assay [1] (Well no.=452) amounted to 104%. For the same compound, the remaining activity at 3.75 µM in assay [2] (Well no.=452) worked out at 99.9%.
With `O=C(O)c1c(O)cccc1O` [2,6-Dihydroxybenzoic acid], the remaining activity at 1.25 µM in assay [1] (Well no.=6921) amounted to 108%. Besides, in assay [2] (Well no.=6921), the remaining activity at 3.75 µM amounted to 105%.
Consider `N=C(N)SCCN` [2-(2-Aminoethyl)isothiourea dihydrobromide], for which, in assay [1] (Well no.=353), the remaining activity at 1.25 µM amounted to 96.2%. Moreover, in assay [2] (Well no.=353), the remaining activity at 3.75 µM came out at 97.5%.
As for `Cc1ccccc1C(=O)NCC(=O)O` [2-(2-Methylbenzamido)acetic acid], the remaining activity at 1.25 µM in assay [1] (Well no.=6725) is 103%. In assay [2] (Well no.=6725), the remaining activity at 3.75 µM was 104%.
With `Fc1ccc(-c2c3cccc(C(F)(F)F)c3nn2Cc2ccc(F)cc2Cl)cc1` [2-(2-chloro-4-fluorobenzyl)-3-(4-fluorophenyl)-7-(trifluoromethyl)-2H-indazole], the remaining activity at 1.25 µM in assay [1] (Well no.=6061) was found to be 93.7%. In addition, in assay [2] (Well no.=6061), the remaining activity at 3.75 µM was found to be 94.4%.
